Results from ChEMBL document CHEMBL1201862, “PubChem BioAssay data set” (2004).
Activity calls are given as the source filed them.

How the values were obtained:
[1] = target: T1, Carboxy-terminal domain RNA polymerase II polypeptide A small phosphatase 1 (Homo sapiens, UniProt Q9GZU7); assay: inhibitors of CTDSP1, concentration-response testing, biochemical assay, absorbance-based, actives from ultra-high-throughput screening (AID 540297); assay type: functional
T1 sequence (Q9GZU7 whole entry): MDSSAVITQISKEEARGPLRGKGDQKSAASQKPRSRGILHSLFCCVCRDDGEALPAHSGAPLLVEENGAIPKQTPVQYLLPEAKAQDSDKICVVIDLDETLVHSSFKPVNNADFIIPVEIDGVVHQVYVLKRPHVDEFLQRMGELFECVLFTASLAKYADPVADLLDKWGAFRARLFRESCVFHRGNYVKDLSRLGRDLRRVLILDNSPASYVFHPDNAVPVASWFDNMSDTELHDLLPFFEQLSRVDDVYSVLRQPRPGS

[2] = target: T2, Corticotropin-releasing factor receptor 2/Corticotropin-releasing factor-binding protein (Homo sapiens, UniProt P24387+Q13324); assay: Dose Response confirmation of uHTS hits for small molecule antagonists of the CRF-binding protein and CRF-R2 receptor complex.; assay type: functional; conditions: read-out: IC50_Mean
T2 sequence (Q13324 whole entry): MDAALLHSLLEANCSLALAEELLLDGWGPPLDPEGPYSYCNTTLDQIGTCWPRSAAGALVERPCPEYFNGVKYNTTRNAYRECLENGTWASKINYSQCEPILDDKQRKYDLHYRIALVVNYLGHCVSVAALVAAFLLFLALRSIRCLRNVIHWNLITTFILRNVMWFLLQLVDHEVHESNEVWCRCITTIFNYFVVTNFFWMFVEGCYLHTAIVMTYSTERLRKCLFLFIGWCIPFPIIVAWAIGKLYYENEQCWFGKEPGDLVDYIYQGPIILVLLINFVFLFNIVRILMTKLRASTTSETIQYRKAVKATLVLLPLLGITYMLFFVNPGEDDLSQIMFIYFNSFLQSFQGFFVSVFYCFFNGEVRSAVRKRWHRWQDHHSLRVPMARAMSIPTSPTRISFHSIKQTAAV
T2 sequence (P24387 whole entry): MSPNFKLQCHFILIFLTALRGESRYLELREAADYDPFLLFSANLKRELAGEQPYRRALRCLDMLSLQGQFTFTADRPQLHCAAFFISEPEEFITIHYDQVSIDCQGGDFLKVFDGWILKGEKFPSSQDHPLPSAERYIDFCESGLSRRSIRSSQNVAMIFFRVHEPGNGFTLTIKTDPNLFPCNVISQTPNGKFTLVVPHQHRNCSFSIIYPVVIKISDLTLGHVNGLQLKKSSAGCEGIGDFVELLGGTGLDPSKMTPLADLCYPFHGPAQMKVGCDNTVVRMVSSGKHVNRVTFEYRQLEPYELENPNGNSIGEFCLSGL

[3] = target: T2, Corticotropin-releasing factor receptor 2/Corticotropin-releasing factor-binding protein; assay: activators of CRF receptor 2 with binding protein – uHTS hits, confirmation (AID 602473); assay type: functional; conditions: read-out: EC50_Mean
[4] = growth suppression of PTEN-null colon cells, dose response, cell-based, HCT116 PTEN knockout (AID 1047); assay type: functional;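 note: HCT116 colon tumor cells with PTEN knocked out; cells exposed to compound for 60 hours before readout; potency for loss of cell viability measured by luminescence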
[5] = growth suppression of beta-catenin-knockout colon cells, dose response, cell-based, HCT116, human colon tumor (AID 1045); assay type: functional;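 note: HCT116 colon tumor cells with beta catenin knocked out; cells exposed to compound for 60 hours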
[6] = Shn3 3'UTR reporter inhibitors, dose response, cell-based, Clone20 osteoblasts, firefly luciferase, cherry-picked (AID 624132); assay type: functional;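 note: firefly luciferase luminescence from reporter carrying the Shn3 3'UTR in osteoblasts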
[7] = HepG2 cell cytotoxicity, dose response, cytotoxicity control for Shn3 inhibitor project, CellTiter-Glo, cherry-picked (AID 624134); assay type: functional, cell-based
[8] = control 3'UTR Renilla luciferase suppression, dose response, counter-screen for Shn3 inhibitor project, cell-based, Clone20-Shn3RL, cherry-picked (AID 624133); assay type: functional
[9] = inhibitors of intracellular T. cruzi replication, confirmation, NIH3T3 host cells, beta-gal luminescence (AID 2044); assay type: functional, cell-based;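 note: intracellular parasites grown in NIH/3T3 mouse fibroblasts as host cells; luminescent beta-galactosidase reporter signal from transgenic T. cruzi replicating inside host cells; inhibitors lower the luminescence signal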
[10] = cytotoxicity toward NIH3T3 fibroblasts, dose response, counter-screen, cell-based, ATP luminescence, mouse fibroblasts (AID 2010); assay type: functional;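 note: cells exposed to compound for about 90 hours before reading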
[11] = target: T3, High affinity choline transporter 1 (Homo sapiens, UniProt Q9GZV3); assay: CHT inhibitors, dose response, cell-based, 5-point CRC, membrane potential dye (AID 504840); assay type: functional
T3 sequence (Q9GZV3 whole entry): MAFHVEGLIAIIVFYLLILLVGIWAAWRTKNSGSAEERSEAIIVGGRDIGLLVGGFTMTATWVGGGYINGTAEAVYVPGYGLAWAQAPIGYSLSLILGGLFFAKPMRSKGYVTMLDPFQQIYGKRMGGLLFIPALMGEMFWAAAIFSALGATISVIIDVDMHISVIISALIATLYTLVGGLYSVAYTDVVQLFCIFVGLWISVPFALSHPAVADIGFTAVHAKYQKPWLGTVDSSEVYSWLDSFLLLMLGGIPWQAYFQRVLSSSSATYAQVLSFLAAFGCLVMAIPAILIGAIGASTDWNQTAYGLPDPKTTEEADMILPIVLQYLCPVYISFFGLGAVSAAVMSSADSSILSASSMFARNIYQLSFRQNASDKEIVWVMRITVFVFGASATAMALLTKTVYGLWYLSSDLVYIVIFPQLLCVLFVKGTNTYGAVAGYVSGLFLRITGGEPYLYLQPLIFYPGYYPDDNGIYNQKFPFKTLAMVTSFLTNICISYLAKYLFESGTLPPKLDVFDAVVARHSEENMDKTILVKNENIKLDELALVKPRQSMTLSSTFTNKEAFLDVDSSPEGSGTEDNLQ

Cytochrome P450 2C19 = Cytochrome P450 2C19 (Homo sapiens, UniProt P33261); assay: Cytochrome panel assay with activity outcomes. Panel member name: p450-cyp2c19 Compounds with AC50 equal or less than 10 uM are considered active; assay type: functional; conditions: read-out: AC50
Cytochrome P450 2D6 = Cytochrome P450 2D6 (Homo sapiens, UniProt P10635);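 note: CYP2D6 member of a cytochrome P450 panel assay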
Cytochrome P450 3A4 = Cytochrome P450 3A4 (Homo sapiens, UniProt P08684);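 note: CYP3A4 tested as one member of a cytochrome P450 panel screen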
Cytochrome P450 2C9 = Cytochrome P450 2C9 (Homo sapiens, UniProt P11712)
[12] = target: T4, DNA repair protein RAD52 homolog (Homo sapiens, UniProt P43351); assay type: functional, biochemical
T4 sequence (P43351 whole entry): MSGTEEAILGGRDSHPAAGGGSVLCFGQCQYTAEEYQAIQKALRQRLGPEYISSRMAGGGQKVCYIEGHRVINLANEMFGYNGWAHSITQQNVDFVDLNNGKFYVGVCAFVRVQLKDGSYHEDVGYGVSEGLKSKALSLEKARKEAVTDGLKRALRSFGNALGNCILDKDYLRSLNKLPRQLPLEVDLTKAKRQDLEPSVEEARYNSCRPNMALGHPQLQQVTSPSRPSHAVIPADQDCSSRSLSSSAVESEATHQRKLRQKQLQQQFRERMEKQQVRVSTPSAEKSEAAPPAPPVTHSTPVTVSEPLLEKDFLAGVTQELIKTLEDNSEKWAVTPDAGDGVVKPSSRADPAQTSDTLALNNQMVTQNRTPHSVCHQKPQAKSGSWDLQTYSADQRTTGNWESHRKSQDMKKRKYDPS

[13] = miR-122 activators in hepatoma reporter cells, dose response, cell-based, Huh7 psiCHECK-miR122, Renilla luciferase, cherry-picked (AID 651956); assay type: functional;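 note: huh7 hepatoma cells stably carrying a psiCHECK-2 miR-122 sensor plasmid; renilla luciferase signal reporting endogenous miR-122 activity after 48 h compound exposure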

Chain of Cytochrome P450 2D6 (P10635 whole entry): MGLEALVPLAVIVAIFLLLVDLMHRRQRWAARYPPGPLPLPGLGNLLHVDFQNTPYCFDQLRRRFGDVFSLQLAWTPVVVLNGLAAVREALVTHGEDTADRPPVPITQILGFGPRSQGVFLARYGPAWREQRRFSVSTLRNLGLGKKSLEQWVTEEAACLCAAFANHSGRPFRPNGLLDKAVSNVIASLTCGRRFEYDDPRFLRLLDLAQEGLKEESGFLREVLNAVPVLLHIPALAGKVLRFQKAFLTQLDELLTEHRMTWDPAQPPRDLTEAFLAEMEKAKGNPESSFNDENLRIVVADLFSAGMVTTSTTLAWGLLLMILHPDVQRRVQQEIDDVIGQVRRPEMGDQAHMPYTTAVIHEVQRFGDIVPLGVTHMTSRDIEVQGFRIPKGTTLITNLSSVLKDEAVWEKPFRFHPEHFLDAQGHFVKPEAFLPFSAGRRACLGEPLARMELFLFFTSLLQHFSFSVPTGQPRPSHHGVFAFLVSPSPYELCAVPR
Chain of Cytochrome P450 2C19 (P33261 whole entry): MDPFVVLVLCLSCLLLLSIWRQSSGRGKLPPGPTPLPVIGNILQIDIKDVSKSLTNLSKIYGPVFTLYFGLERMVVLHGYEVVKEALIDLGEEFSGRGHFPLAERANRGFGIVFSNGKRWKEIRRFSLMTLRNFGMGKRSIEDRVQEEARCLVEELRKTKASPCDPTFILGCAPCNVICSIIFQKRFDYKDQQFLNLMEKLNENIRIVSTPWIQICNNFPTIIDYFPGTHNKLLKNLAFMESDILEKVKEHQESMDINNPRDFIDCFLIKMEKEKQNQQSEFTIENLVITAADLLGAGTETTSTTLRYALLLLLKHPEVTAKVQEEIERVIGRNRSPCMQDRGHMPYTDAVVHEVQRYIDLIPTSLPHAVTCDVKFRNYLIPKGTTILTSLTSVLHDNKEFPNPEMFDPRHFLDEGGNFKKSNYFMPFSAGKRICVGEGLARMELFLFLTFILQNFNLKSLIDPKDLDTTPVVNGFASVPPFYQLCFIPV
Chain of Cytochrome P450 3A4 (P08684 whole entry): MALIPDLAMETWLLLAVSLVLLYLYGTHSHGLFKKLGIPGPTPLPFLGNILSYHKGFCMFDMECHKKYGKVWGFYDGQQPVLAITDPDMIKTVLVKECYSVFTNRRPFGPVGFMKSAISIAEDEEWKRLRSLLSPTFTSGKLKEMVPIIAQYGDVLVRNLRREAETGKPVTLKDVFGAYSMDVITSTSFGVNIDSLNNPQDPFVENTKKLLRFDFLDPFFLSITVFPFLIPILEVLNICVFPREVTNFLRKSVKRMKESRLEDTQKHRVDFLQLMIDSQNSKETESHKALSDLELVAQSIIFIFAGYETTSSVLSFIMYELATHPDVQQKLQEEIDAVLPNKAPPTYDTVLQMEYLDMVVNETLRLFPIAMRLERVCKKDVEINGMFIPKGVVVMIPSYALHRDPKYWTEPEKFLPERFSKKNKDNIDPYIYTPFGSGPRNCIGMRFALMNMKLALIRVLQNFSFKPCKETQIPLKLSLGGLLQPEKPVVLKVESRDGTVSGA
Chain of Cytochrome P450 2C9 (P11712 whole entry): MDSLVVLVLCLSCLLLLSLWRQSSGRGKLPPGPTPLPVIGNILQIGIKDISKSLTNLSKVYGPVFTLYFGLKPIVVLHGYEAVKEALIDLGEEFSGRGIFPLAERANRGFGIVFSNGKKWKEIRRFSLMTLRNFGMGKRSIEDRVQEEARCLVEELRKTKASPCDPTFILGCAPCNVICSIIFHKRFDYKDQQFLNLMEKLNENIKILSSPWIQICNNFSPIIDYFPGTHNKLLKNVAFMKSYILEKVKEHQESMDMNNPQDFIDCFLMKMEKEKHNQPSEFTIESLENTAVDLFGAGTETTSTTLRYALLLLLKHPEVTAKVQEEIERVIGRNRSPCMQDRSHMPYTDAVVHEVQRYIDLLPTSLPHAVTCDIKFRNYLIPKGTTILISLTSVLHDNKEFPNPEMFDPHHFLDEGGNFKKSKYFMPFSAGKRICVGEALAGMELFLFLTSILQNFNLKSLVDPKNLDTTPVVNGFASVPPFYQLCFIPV

SMILES: O=C(N/N=C/c1cc(Cl)cc([N+](=O)[O-])c1O)c1cc(-c2ccccn2)nc2ccccc12
- IC50 [1]: 1.85 µM (active)

SMILES: O=C(CC(CC(=O)c1ccccc1)c1ccncc1)c1ccccc1
- IC50 [2]: > 47.1 µM (inactive)
- EC50 [3]: > 53 µM (inactive)

SMILES: CCOc1ccc2nc(O)c(CN(Cc3cccs3)C(CC)c3nnnn3C(C)(C)CC)cc2c1 (stereo not given)
- EC50 [4]: 4.69 µM (active)
- EC50 [5]: 5.11 µM (active)

SMILES: Cc1ccc(S(=O)(=O)N2C[C@@H]3CCCC[C@@H]3[C@@H](C)[C@H]2c2cn(Cc3ccccc3)c3ncccc23)cc1
- AC50 [6]: 1.92 µM (active)
- AC50 [7]: 2.47 µM (active)
- AC50 [8]: 4.12 µM (active)

SMILES: CCOC(=O)N1CCN(C(=O)c2oc3ccc(S(=O)(=O)N4CCCCCC4)cc3c2C)CC1
- EC50 [9]: 2.02 µM (active)
- EC50 [10]: > 60 µM (not active)
- IC50 [11]: 13.2 µM (active)

SMILES: O=[N+]([O-])c1ccc2nc(-c3ccccc3)n(OCc3ccc(Cl)cc3)c2c1
- IC50 [1]: 10.1 µM (active)

SMILES: O=C(CNC(=O)c1ccccc1)NCC(=O)OCc1ccc(Cl)cc1
- AC50 (Cytochrome P450 2C19): 20 µM (inconclusive)
- AC50 (Cytochrome P450 2D6): 20 µM (inconclusive)
- AC50 (Cytochrome P450 3A4): 14.1 µM (inconclusive)
- AC50 (Cytochrome P450 2C9): 0.1 µM (inconclusive)

SMILES: CCc1ccc(N2C(=O)NC(=O)/C(=C\NCCN(CC)CC)C2=O)cc1
- AC50 [6]: > 70 µM (inactive)
- AC50 [8]: 27.8 µM (active)

SMILES: CC(C)COc1nc2ccccc2nc1N1CCN(C)CC1
- IC50 [11]: 15.1 µM (active)

SMILES: CSc1ccc(/C=N/NC(=O)c2cccc(Cl)c2)cc1
- IC50 [1]: 13.4 µM (active)

SMILES: Nc1ccc(CC(N)c2csc(Nc3ncccn3)n2)cc1 (stereo not given)
- AC50 [12]: 19.2 µM (active)

SMILES: O=C(N/N=C/c1ccccc1OC(=O)c1ccc2c(c1)OCO2)c1ccccc1
- EC50 [4]: 20.9 µM (active)
- EC50 [5]: 18.9 µM (active)

SMILES: C[C@@H]1CN([C@@H](C)CO)C(=O)c2cc(NC(=O)Nc3cccc4ccccc34)ccc2O[C@@H](C)CCCCO[C@H]1CN(C)CC1CCCCC1
- AC50 [13]: 8.95 µM (active)

SMILES: CN1C(=O)c2cc(NS(=O)(=O)c3ccc(Cl)cc3)ccc2OC[C@H]2O[C@H](CC(=O)N3CCc4ccccc4C3)CC[C@@H]21
- AC50 [13]: 14.8 µM (active)

SMILES: Cc1ccc(-c2ccc3c(c2)O[C@H](CN(C)C(=O)CC2CC2)[C@H](C)CN([C@H](C)CO)S3(=O)=O)cc1
- AC50 [13]: 10.7 µM (active)

SMILES: COc1ccccc1N1CCN(C(=O)C2CCCN(S(=O)(=O)c3ccc4c(c3)CCCN4C(C)=O)C2)CC1 (stereo not given)
- AC50 [6]: 2.68 µM (active)
- AC50 [7]: 50.9 µM (active)
- AC50 [8]: 1.15 µM (active)

SMILES: O=C(c1cccc(NS(=O)(=O)c2ccc(F)c(F)c2)c1)N1CCN(C(c2ccccc2)c2ccccc2)CC1
- IC50 [2]: > 47.1 µM (inactive)
- EC50 [3]: > 53 µM (inactive)

SMILES: CCOc1ccc(C(=O)OCC(=O)Nc2cccnc2Cl)cc1OCC
- IC50 [2]: > 47.1 µM (inactive)
- EC50 [3]: > 53 µM (inactive)

SMILES: COc1ccc(NC(=O)C(C)Sc2nnc3c4c(nc(-c5ccc(OC)cc5)n23)CC(C)(C)OC4)cc1 (stereo not given)
- EC50 [4]: 27 µM (active)
- EC50 [5]: 58.9 µM (active)
